Measured values published in patent US20050130906A1, “Amelioration of macular degeneration and other ophthalmic diseases” (priority 2003, published 2005).

Experiments:
[1] = tested on: retinal S-antigen-induced experimental autoimmune uveoretinitis (EAU); conditions: rat model, after systemic injection; Zamir et al. 1999; cited from earlier work
[2] = tested on: lens epithelial cells; conditions: Mitchell et al. 1991; Krishna et al. 1991; cited from earlier work
[3] = tested on: blue light-illuminated A2E-laden RPE (ARPE-19 cells); assay: Protection against A2E-mediated blue light damage (MTT assay and two-color fluorescence cell death assay); type: cell-based
From the text: The ability of Tempol-H to protect against A2E-mediated blue light damage was examined.
Materials and Methods: ARPE-19 cells that have accumulated A2E in culture were exposed to 430±20 nm light delivered from a halogen source. This wavelength of light is relevant since (i) the excitation maximum of A2E is approximately 430 nm, and (ii) light of this wavelength reaches the RPE in vivo while light of wavelengths longer than 400 nm are not absorbed by the cornea and lens. Cell death in blue light-illuminated A2E-laden RPE was compared with and without pre-treatment (24 hours) with Tempol-H. The loss of cell viability was quantified by: • 1. A calorimetric microtiter assay based on ability of healthy metabolically active cells to cleave the yellow tetrazolium salt MTT to purple formazan crystals. Cell viability was assessed 24 hours after blue light illumination. Triplicate wells were assayed in each of 2 experiments.
2. Two-color fluorescence assay in which the nuclei of all dead cells appear red due to staining by a membrane-impermeant dye (Dead Red nuclei acid stain, Molecular Probes) with the nuclei of all cells stained blue with DAPI. Cell viability was assessed 8 hours after blue light illumination. Replicates were assayed by counting cells within 5 microscopic fields within the area of illumination in each well and 3 wells were assayed per experiment. Data are based on 3 experiments.

[4] = tested on: cataract; conditions: Zigler et al., U.S. Pat. No. 6,001,853; cited from earlier work

Row | Structure (SMILES) | severity of EAU [1] | protection of lens epithelial cells from oxidative damage [2] | protection of blue light-illuminated A2E-laden RPE cells ([3]; 1 mM, FIG. 2) | protection against the death of A2E-laden RPE ([3]; blue light 430±20 nm, 24 hours pre-treatment, FIG. 1 and FIG. 2) | protection of blue light illuminated A2E-laden RPE cells ([3]; various concentrations, FIG. 1) | anti-cataractogenic activity compared with the corresponding nitroxide [4]
1 | CC1(C)CC(O)CC(C)(C)N1[O] [tempol, 4-hydroxy-2,2,6,6,-tetramethylpiperidine-1-N-oxyl] | reduced the severity |  |  |  |  | 
2 | CC1(C)CC(O)CC(C)(C)N1O [Tempol-H] |  | afforded no such protection | protection | dose-dependent protection | protect | better anti-cataractogenic composition than the corresponding nitroxide
